Measured values published in patent US20050165080A1, “Method for the treatment of diseases requiring inhibition or a reduction in the activity of pH value-regulating bicarbonate transporter proteins” (Solvay Pharmaceuticals GmbH, priority 2002, published 2005).

Key:
[1] = system: Na+-independent chloride-bicarbonate (Cl−/HCO3−) exchanger (AE) protein; assay: Intracellular pH recovery after alkalization (NH4Cl pulse) in BCECF-laden adult cardiac fibroblasts; assay type: cell-based, Wistar rats; conditions: for recovery after the intracellular alkalization, compared with guanabenz-pre-treated or non-pre-treated cells / percentage of the change in pH value still present, relative to the maximum alkaline pH value reached, after 5 min / percentage of the change in pH value still present, relative to the maximum alkaline pH value reached, after 8 min: 30 min preincubation; for recovery after the intracellular alkalization, compared with guanabenz-pre-treated or non-pre-treated cells: moxonidine 10^−6 to 10^−9 mole/liter, H2-DIDS 10^−3 mole/liter, NH4Cl pulse; for percentage of the change in pH value still present, relative to the maximum alkaline pH value reached, after 5 min / percentage of the change in pH value still present, relative to the maximum alkaline pH value reached, after 8 min: 10^−6 mole/liter, 5 mmole/liter NH4Cl pulse, cardiac fibroblasts, mean and standard deviation from 3 to 5 experiments; for percentage of the change in pH value still present, relative to the maximum alkaline pH value reached, after 5 min: 5 min after maximum alkaline pH; for percentage of the change in pH value still present, relative to the maximum alkaline pH value reached, after 8 min: 8 min after maximum alkaline pH
Method: (§1) The investigations were carried out on cardiac fibroblasts isolated from the left ventricle of the myocardium of 6-week-old Wistar rats. Myocardial tissue was placed in HBSS medium without Ca^2+ and Mg^2+ (GibcoBRL), cut into small pieces which were incubated with 1 mg/ml collagenase A (Roche) with continuous shaking for 10 minutes in HBSS medium. The first supernatant was discarded and the incubation operation was repeated three times, the supernatant being collected each time in a tube with 5 ml HBSS medium. After centrifuging at 160×g for 10 min, the pellet was re-suspended in a flask with DMEM (GibcoBRL), to which 10% foetal calf serum (FCS, from Sigma) was added. […] The flasks were incubated in an air-humidified incubator with 5% CO2 and at 37° C. Cardiac fibroblasts, which grew in a typical monolayer, were cultivated by standard cell culture techniques and at subconfluence were transferred into new flasks in a 1:3 ratio [Brilla et al. (1994) Collagen metabolism in cultured adult rat cardiac fibroblasts: response to agiotensin II and aldosterone. J. Mol. Cell Cardiol. 26: 809-820].
The intracellular pH value of an individual cell was measured using the fluorescent marker BCECF (2′,7′-bis-(2-carboxymethyl)-5-[and -6]-carboxyfluorescein from Molecular Probes), the fluorescent intensity of which is pH-dependent. The cardiac fibroblasts were grown on glass microscope slides until at subconfluence, and were then laden with BCECF-acetoxymethyl ester. The fibroblasts thus pre-treated were washed with PBS and then preincubated with various test solutions and then rinsed. In so doing, the intracellular fluorescence of the BCECF was measured using an inverted microscope, to which a “PTI 710 Photon Counting Detection” system (Photon Technology International) with two monochromators was connected. The data were analysed using a fluorescence spectrometer. The measurement results—fluorescence signals—were converted into pH values using a calibration curve.
Composition of the bicarbonate solution: 118 mmole/liter NaCl, 4.7 mmole/liter KCl, 2.5 mmole/liter CaCl2×2H2O, 1.6 mmole/liter MgCl2×7H2O, 24.9 mmole/liter NaHCO3, 1.2 mmole/liter KH2PO4, 5.6 mmole/liter glucose and either 0.4% or 10% FCS, equilibrated with 20% O2 and 5% CO2 for at least 30 minutes to ensure a pH value of 7.4.
The individual test solutions were based on the above bicarbonate solution and contained the following concentration of the compounds below: • 10^−6 mole/liter guanabenz (Sigma) • 10^−6 mole/liter to 10^−9 mole/liter moxonidine • 10^−3 mole/liter H2-DIDS (Molecular Probes) Intracellular alkalization of the cells was achieved by rinsing with a 5 mmole/liter NH4Cl-containing bicarbonate solution (NH4Cl pulse). Subsequent washing-out of the NH4Cl by rinsing the cells with fresh bicarbonate solution results in intracellular acidification.
The effect of moxonidine, DIDS and guanabenz on the change in the intracellular pH value after alkalization of the cells is determined by an NH4Cl pulse. To this end, the BCECF-laden cardiac fibroblasts were preincubated for 30 minutes with a bicarbonate test solution containing one of the above compounds. Then the response of the intracellular pH value of the cells thus pre-treated to a 5 mmole/liter NH4Cl pulse was measured over time. Also the change in pH value which took place during the subsequent washing-out of the NH4Cl (intracellular acidification) was further measured over time. […] To quantify the inhibitory effects, the percentage of the change in pH value still present relative to the maximum alkaline or maximum acidic pH value achieved was calculated.

[2] = system: Na+/bicarbonate (Na+/HCO3−) cotransporter (NBC) protein or/and Na+-dependent chloride-bicarbonate (Cl−/HCO3−) exchanger (NDAE and N(D)CBE) protein; assay: Intracellular pH recovery after acidification (NH4Cl wash-out) in cardiac fibroblasts; assay type: cell-based, Wistar rats; conditions: recovery from intracellular acidification
Method: as §1, with “Cardiac fibroblasts, which grew in a typical monolayer, were cultivated by standard cell culture techniques and at subconfluence were transferred into new flasks in a 1:3 ratio [Brilla et al. (1994) Collagen metabolism in cultured adult rat cardiac fibroblasts: response to agiotensin II and aldosterone. J. Mol. Cell Cardiol. 26: 809-820].” left out
The intracellular pH value of an individual cell was measured using the fluorescent marker BCECF (2′,7′-bis-(2-carboxymethyl)-5-[and -6]-carboxyfluorescein from Molecular Probes), the fluorescent intensity of which is pH-dependent. […] In so doing, the intracellular fluorescence of the BCECF was measured using an inverted microscope, to which a “PTI 710 Photon Counting Detection” system (Photon Technology International) with two monochromators was connected. The data were analysed using a fluorescence spectrometer. The measurement results—fluorescence signals—were converted into pH values using a calibration curve. […]

With `O=S(=O)(O)c1cc(N=C=S)ccc1C=Cc1ccc(N=C=S)cc1S(=O)(=O)O` [DIDS, 4,4′-diisothiocyanostilbene-4,4′-disulfonate] the “recovery after the intracellular alkalization, compared with guanabenz-pre-treated or non-pre-treated cells” value [1] was “considerably longer recovery”.

For `N=C(N)N/N=C/c1c(Cl)cccc1Cl` [Guanabenz], the “percentage of the change in pH value still present, relative to the maximum alkaline pH value reached, after 5 min” value [1] was 20.6 ± 5.2% and the “percentage of the change in pH value still present, relative to the maximum alkaline pH value reached, after 8 min” value [1] was 9.9 ± 2.7%.

`COc1nc(C)nc(Cl)c1NC1=NCCN1` [Moxonidine, 4-chloro-5-[(4,5-dihydro-1H-imidazol-2-yl)-amino]-6-methoxy-2-methylpyrimidine] was tested, and the “percentage of the change in pH value still present, relative to the maximum alkaline pH value reached, after 5 min” value [1] was 58.8 ± 12.0%, the “percentage of the change in pH value still present, relative to the maximum alkaline pH value reached, after 8 min” value [1] was 41.9 ± 24.4% and the “recovery after the intracellular alkalization, compared with guanabenz-pre-treated or non-pre-treated cells” value [1] was “considerably longer recovery”. The “inhibitory effect on the recovery from the alkaline pH (dose-effect curve)” value ([1]; concentration of 10^−8 mole/liter) was “significantly inhibitory action” and the “inhibition of NBC or/and NDAE and N(D)CBE proteins (result in words)” value [2] was “selective inhibitor”.
